Assay results from PubChem BioAssay AID2060620 (Molecular Pharmacology Branch, DTP, NCI, 2025).
Values joined by “and” are separate entries in the source; they are usually repeats but may differ in a detail not shown here. Equal entries are not always repeated.

System: 328373-195-R-J1-PDC complex spheroids, viability % test/control
Test: Anticancer human tumor 328373-195-R-J1-PDC patient-derived head and neck squamous carcinoma cell line growth inhibition [CLK]
Details: for viability, T/C: stronger effect = lower value; active = viability on the fitted dose curve at most 10% of control; inactive = the rest
In short: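 Patient-derived tumor cells grown as complex spheroids with HUVEC endothelial cells and mesenchymal stem cells, treated with drug combinations. Concentrations descend in half-log steps from near clinical Cmax, or from 10 microM if Cmax unknown.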
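Also: spheroids exposed to the agents for 7 days.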

CC(C)CC(NC(=O)C(Cc1ccccc1)NC(=O)c1cnccn1)B(O)O (stereo unspecified) + CNC(=O)c1ccc(Nc2nc(OC3CCCC3)c3c(-c4ccc5nc(C)oc5c4)c[nH]c3n2)c(OC)c1
active: viability, T/C (second compound 0.0316 µM, first compound 0.003 µM) 3.15% | viability, T/C (second compound 0.0316 µM, first compound 0.00949 µM) 0.27% | viability, T/C (second compound 0.0316 µM, first compound 0.03 µM) 0.18% | viability, T/C (second compound 0.0316 µM, first compound 0.0949 µM) 0.2% | viability, T/C (second compound 0.0316 µM, first compound 0.3 µM) 0.32% | viability, T/C (second compound 0.1 µM, first compound 0.003 µM) 4.91% | viability, T/C (second compound 0.1 µM, first compound 0.00949 µM) 0.98% | viability, T/C (second compound 0.1 µM, first compound 0.03 µM) 0.14% | viability, T/C (second compound 0.1 µM, first compound 0.0949 µM) 0.16% | viability, T/C (second compound 0.1 µM, first compound 0.3 µM) 1.45% | viability, T/C (second compound 0.316 µM, first compound 0.003 µM) 5.82% | viability, T/C (second compound 0.316 µM, first compound 0.00949 µM) 0.17% | viability, T/C (second compound 0.316 µM, first compound 0.03 µM) 0.11% | viability, T/C (second compound 0.316 µM, first compound 0.0949 µM) 0.14% | viability, T/C (second compound 0.316 µM, first compound 0.3 µM) 0.13% | viability, T/C (second compound 1 µM, first compound 0.000949 µM) 9.47% | viability, T/C (second compound 1 µM, first compound 0.003 µM) 4.37% | viability, T/C (second compound 1 µM, first compound 0.00949 µM) 0.14% | viability, T/C (second compound 1 µM, first compound 0.03 µM) 0.08% | viability, T/C (second compound 1 µM, first compound 0.0949 µM) 0.12% | viability, T/C (second compound 1 µM, first compound 0.3 µM) 1.52% | viability, T/C (second compound 3.16 µM, first compound 0.003 µM) 3.42% | viability, T/C (second compound 3.16 µM, first compound 0.00949 µM) 0.15% | viability, T/C (second compound 3.16 µM, first compound 0.03 µM) 0.09% | viability, T/C (second compound 3.16 µM, first compound 0.0949 µM) 0.24% | viability, T/C (second compound 3.16 µM, first compound 0.3 µM) 0.19% | viability, T/C (second compound 10 µM, first compound 0.003 µM) 2.54% | viability, T/C (second compound 10 µM, first compound 0.00949 µM) 0.2% | viability, T/C (second compound 10 µM, first compound 0.03 µM) 0.64% | viability, T/C (second compound 10 µM, first compound 0.0949 µM) 0.3% | viability, T/C (second compound 10 µM, first compound 0.3 µM) 0.6%
1.43 nM: IC50 (curve of first compound, second compound 0.0316 µM)
< 0.949 nM: IC50 (curve of first compound, second compound 0.1 µM) | IC50 (curve of first compound, second compound 0.316 µM) | IC50 (curve of first compound, second compound 1 µM) | IC50 (curve of first compound, second compound 3.16 µM) | IC50 (curve of first compound, second compound 10 µM)
inactive: viability, T/C (second compound 0.0316 µM, first compound 0.000949 µM) 75.7% | viability, T/C (second compound 0.1 µM, first compound 0.000949 µM) 12.8% | viability, T/C (second compound 0.316 µM, first compound 0.000949 µM) 10.9% | viability, T/C (second compound 3.16 µM, first compound 0.000949 µM) 12.4% | viability, T/C (second compound 10 µM, first compound 0.000949 µM) 14.2%

CC(C)CC(NC(=O)C(Cc1ccccc1)NC(=O)c1cnccn1)B(O)O (stereo unspecified)
active: viability, T/C (compound 0.003 µM) 8.65% and 3.9% | viability, T/C (compound 0.00949 µM) 1.43% and 0.2% | viability, T/C (compound 0.03 µM) 1.56% and 0.3% | viability, T/C (compound 0.0949 µM) 0.16% | viability, T/C (compound 0.3 µM) 0.85% and 0.2%
1.76 nM and 1.86 nM: IC50 (curve of compound)
inactive: viability, T/C (compound 0.000949 µM) 97.8% and 115%

O=c1[nH]cc(F)c(=O)[nH]1
inactive: viability, T/C (compound 0.0316 µM) 54% and 64.5% | viability, T/C (compound 0.1 µM) 14.5% and 17.4% | viability, T/C (compound 0.316 µM) 11.9% and 9.36% | viability, T/C (compound 1 µM) 6.67% and 7.09% | viability, T/C (compound 3.16 µM) 8.84% and 8.77% | viability, T/C (compound 10 µM) 14.9% and 15.6%
35.6 nM and 44.9 nM: IC50 (curve of compound)
